Source: article PMC12811658, “Design, Synthesis, and Structural Evolution of Pseudo‐Natural Product IDO1 Inhibitors and Degraders” (Angewandte Chemie (International Ed. in English), 2025)

Tests used:
[1] = Pharmacokinetics of iDeg-6; format: in vivo, male C57Bl/6 mice; details: male, C57Bl/6, mouse, plasma
Protocol: In vivo pharmacology characterization was carried out at Pharmacelsus GmbH, Saarbrücken, Germany, using male C57Bl/6 mice. Food and water was provided ad libitum before and during each study. All experimental procedures were approved by and conducted in accordance with the regulations of the local Animal Welfare Authorities. Plasma samples were analysed by liquid chromatography tandem-mass spectrometry using a generic method. Pharmacokinetic parameters were calculated by non-compartmental analysis. […] Up to 120 mg/kg PO and 30 mg/kg IP no clinical signs were observed. […] Due to the larger plasma exposure of iDeg-6 the IP route was selected for efficacy studies.

recombinant human IDO1 = biological target: T1, recombinant human IDO1 (Homo sapiens, UniProt P14902); assay: IDO1 enzymatic assay in vitro; format: biochemical; details: at 14 µM; pre-incubation 37 °C 45 min; mean ± SD
T1 construct: The GST-tag of IDO1 was removed to obtain untagged full-length IDO1l using PreScission protease; GST (N, cleaved yes); made in house; own inference

[2] = system: global proteome of SKOV-3 cells; assay: TMT-based global proteome profiling; format: cell-based; details: 10 µM vs DMSO, 4 h, LC-MS/MS
Protocol: Figure 3 Comparison of IDO1 degradation efficiency for selected compounds. a) Detection of IDO1 levels using immunostaining. IFN‐γ stimulated HeLa cells were treated with the compounds for 24 h. IDO1 protein abundance was detected with IDO1 antibody. Data are mean values ± SD, n = 3. b) IDO1 protein levels in BxPC3 cells upon compounds treatment were detected using immunoblotting. BxPC3 cells were treated with IFN‐γ for 24 h prior to washout, followed by addition of compounds. Representative blot and quantified band intensities are shown (mean values ± SD, n = 3). See Figure S11a S12a for the uncropped blots. c) Key functions of hit compounds that influence degradation efficiency. d) Heatmap for IDO degradation efficiency. IDO1 levels were monitored as described in (c). See Table S1 for mean values and Figure S11b for the uncropped blots. e)–g) Dose dependent degradation of IDO1 protein in BxPC3 cells treated with iDeg‐7–9 and detected as described in (c). Representative data of n = 3 except for iDeg‐9 (n = 4). See Figure S12 S13 for the uncropped blots. h) Quantification of IDO1 protein levels from e‐g (mean values ± SD, n = 3 except for iDeg‐9 (n = 4). i) Tabulated inhibition and degradation ability of iDeg‐6–9. ND: not detected. j) Volcano plot of iDeg‐6‐induced changes on the global proteome. SKOV‐3 cells were treated with 10 µM iDeg‐6 or DMSO for 4 h followed by protein extraction, tryptic digest and LC‐MS/MS analysis (n = 4). Plot generated using UMSAP (T 0 = 0.5, S 0 = 0.5).
Cells were collected after trypsinization. The collected cell suspension was centrifugated and washed twice by cold PBS before lysate preparation by means of four freeze-thaw cycles in PBS containing 0.4% NP-40 alternative with protease (Roche, #5892970001) and phosphatase inhibitors (Roche, #4906845001). Protein concentration was determined by DC protein assay (BIO-RAD, #5000116) and 200 μg of protein lysates were subjected to the sample preparation and MS analysis. Protein lysates were dissolved in equal volume of 100 mM triethylammonium bicarbonate (TEAB) buffer supplemented with 7.5 µL of a 200 mM Tris(2-carboxyethyl) phosphine (TCEP) followed by an incubation step at 55 °C for 1 h. Afterwards, 7.5 µL of 375 mM iodoacetamide were added and samples were incubated for another 30 min at room temperature in the dark prior to acetone-based protein precipitation (pre-incubation at -20 °C overnight). On the next day, samples were centrifuged at 8,000 x g and 4 °C, the supernatant was aspired and protein pellets were dried at room temperature. Pellets were dissolved in digestion buffer (trypsin: protein ratio-1:50 (w/w)), in which trypsin was pre-dissolved in 10 mM HCl, and then diluted in 100 mM TEAB buffer to a final concentration of 0.4 µg/µL trypsin in 10 mM HCl, then the sample was incubated with shaking overnight at 37 °C. On the next day, samples were labelled with TMT10plex reagents (Thermo Scientific, WL320956) following the instruction of the TMT10plex Mass Tag Labeling Kit. Namely, 20 µL of the TMTpro Label reagent was added to each 100 µL sample (100 µg protein) followed by incubation for 2 h at room temperature while shaking. Afterwards, 5 µL of 5% hydroxylamine was added into each sample, and the samples were incubated for 15 min to quench the reaction. Equal amounts of each sample were combined in a new tube. The pooled samples were dried in a SpeedVac at 30 °C until the liquid evaporated completely.
All solvents used during MS measurements were LC-MS grade. The TMTpro labeled peptides were cleaned up and fractionated using a reversed-phase fractionation spin column (Thermo Fisher Scientific ^#84868) following the instructions of the Pierce™ High pH Reversed-Phase Peptide Fractionation kit. Briefly, the combined labeled samples (40 µg) were fully dissolved in 300 μL of 0.1% TFA and loaded onto an activated spin column, followed by centrifugation at 3000 g for 2 minutes. […]

[3] = system: Kyn levels in BxPC3 cells (kynurenine generated by IDO1); assay: Cellular Kyn assay (automated Kyn screening assay); format: cell-based; details: Homo sapiens, BXPC-3, 48 h, IFN-γ, L-Trp and compounds 48 h, mean ± SD, read-out: IC50 (Kyn assay), reduction of kynurenine levels
[4] = biological target: IDO1 protein levels in BxPC3 cells (Homo sapiens, UniProt P14902); assay: IDO1 immunoblotting (degradation); format: cell-based; parameters: endogenous in cells; host or cells: BxPC3 (DSMZ), IFN-γ stimulated; details: 24 h incubation, mean ± SD
Chain of IDO1 protein levels in BxPC3 cells (P14902 whole entry): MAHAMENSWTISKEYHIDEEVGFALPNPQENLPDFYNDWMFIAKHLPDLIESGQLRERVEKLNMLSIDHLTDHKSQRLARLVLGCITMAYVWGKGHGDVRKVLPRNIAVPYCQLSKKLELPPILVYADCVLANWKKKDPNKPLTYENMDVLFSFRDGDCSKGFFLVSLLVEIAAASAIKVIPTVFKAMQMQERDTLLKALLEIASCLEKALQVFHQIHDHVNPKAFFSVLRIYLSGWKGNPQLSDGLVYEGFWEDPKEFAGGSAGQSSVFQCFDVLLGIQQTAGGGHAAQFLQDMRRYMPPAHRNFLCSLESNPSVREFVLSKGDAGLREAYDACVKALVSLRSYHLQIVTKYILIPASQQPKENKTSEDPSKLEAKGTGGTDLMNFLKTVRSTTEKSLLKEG

T1 sequence (P14902 whole entry): as above

## C#Cc1ccc(NC(=O)OC[C@]23CN(S(=O)(=O)c4ccc(C(C)(C)C)cc4C)C[C@H]2C[C@H]2C[C@@H]3C2(C)C)cc1 [98 (iDeg-6), ((3aS,4R,6R,7aS)-2-((4-(tert-butyl)-2-methylphenyl)sulfonyl)-5,5-dimethyloctahydro-3aH-4,6-methanoisoindol-3a-yl)methyl (4-ethynylphenyl)carbamate]
[1]; 1 mg/kg IV
  AUC(0-inf): 414 ng·h/mL
  C0: 1120 ng/mL
  clearance: 40.3 mL/min/kg
  half-life: 1.1 h
[1]; 1 mg/kg IV, read-out: Vz
  Vd: 3.82 L/kg
[1]; 30 mg/kg IP
  AUC(0-inf): 7040 ng·h/mL
  Cmax: 872 ng/mL
  bioavailability: 57%
  half-life: 4 h
Recombinant human IDO1
  inhibition at 14 µM: 40 ± 7%
[2]
  Difference in protein level: ATP6V0D1: 0.47
  Difference in protein level: COX6C: 0.79
  Difference in protein level: COX7A2: 0.74
  Difference in protein level: COX7C: 0.6
  Difference in protein level: ERLIN2: 0.69
  Difference in protein level: IDO1: -0.53
  Difference in protein level: MT-CO2: 0.44
  Difference in protein level: MT-ND2: 0.52
  Difference in protein level: NDUFA3: 0.44
  Difference in protein level: NDUFA9: 0.58
  Difference in protein level: NDUFB3: 0.53
  Difference in protein level: NDUFB11: 0.51
  Difference in protein level: NDUFC2: 0.57
  Difference in protein level: NDUFS5: 0.51
  Difference in protein level: PHB: 0.45
  Difference in protein level: PHB2: 0.54
  Difference in protein level: TCIRG1: 0.37
  Difference in protein level: TOMM5: 0.56
  Difference in protein level: TOMM22: 0.6
  Difference in protein level: TOMM40: 0.45
  Difference in protein level: UQCRB: 0.52
  Difference in protein level: VDAC3: 0.52
[3]
  IC50: 14 ± 3 nM
[4]; 10 nM
  Max. degradation (%): 61 ± 12 (5) %
[4]; 100 nM
  Max. degradation (%): 74 ± 13 (5) %
